# Reference: patent US4210638A, “Antiviral composition and method of treating virus diseases” (PCR, Inc., priority 1978, dated 1980)
# Experiments:
# [1] = test system: uninfected cells; details: cited from earlier work; for toxicity towards uninfected cells compared with deoxyuridine compounds: Greer et al. 1975; for toxicity in culture: cell culture
# [2] = test system: animal systems; details: usually must be administered very soon after infection; cited from earlier work
# [3] = test system: recurrent genital Herpes; details: in vivo; cited from earlier work
# [4] = in vivo; cited from earlier work
# [5] = test system: HSV infections of the eye; details: cited from earlier work; for antiviral activity against HSV infections of the eye: Kaufman 1962 / Heidelberger
# [6] = test system: human encephalitis; details: in vivo; cited from earlier work
# [7] = test system: Herpes simplex; details: cited from earlier work
# [8] = test system: uridine and thymidine phosphorylase; details: cited from earlier work
# [9] = test system: HEp-2 cells; assay: Cytotoxicity vs HEp-2 cells (colony formation, % survival)
# [10] = test system: HSV-2; assay: Antiviral activity vs HSV-2 in HEp-2 cells (plaque assay in BHK cells); format: cell-based; details: 100 or 500 μg/ml
# Experimental: The culture medium containing the nucleoside analogs at varying concentrations are added to the infected cultures. In the case of HEp-2 cells which contain high deaminase levels, H4 U is incorporated into the medium. At 48 hours, virus is harvested from the cultures by freezing and thawing. The virus produced from each culture is titred by plaque assay in BHK cells. By using this protocol the antiviral effectiveness of F3 methyl dC can be compared directly with the effectiveness of other antiviral agents. Furthermore, by including H4 U in the medium, the effectiveness of F3 methyl dC can be determined without deamination at the nucleoside level.
# [11] = test system: man; details: extremely high concentrations; cited from earlier work
# [12] = target: T1, HSV-2 induced pyrimidine deoxyribonucleoside kinase (Human herpesvirus 2 strain HG52, UniProt P89446); assay: Phosphorylation by HSV-2 induced pyrimidine deoxyribonucleoside kinase; format: biochemical; details: for nmoles phosphorylated/60min.: solutions a, c, d adjusted to the same O.D.
# T1 construct: preparation not described in the excerpts
# T1 sequence (P89446 whole entry): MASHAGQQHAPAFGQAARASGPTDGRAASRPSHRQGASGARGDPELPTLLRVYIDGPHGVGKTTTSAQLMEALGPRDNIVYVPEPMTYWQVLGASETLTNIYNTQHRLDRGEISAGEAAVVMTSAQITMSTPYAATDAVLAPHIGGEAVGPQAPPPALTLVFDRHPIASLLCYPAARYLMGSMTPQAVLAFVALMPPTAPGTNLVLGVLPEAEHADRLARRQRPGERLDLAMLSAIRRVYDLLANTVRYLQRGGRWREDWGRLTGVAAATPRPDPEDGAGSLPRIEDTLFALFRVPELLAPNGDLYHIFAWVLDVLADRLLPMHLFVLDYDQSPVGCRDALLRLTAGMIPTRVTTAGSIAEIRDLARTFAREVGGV
# Source text: The following spots were eluted into H2 O and scanned from 225 to 350 nm: (a) standard, (b) F3 methyl dC standard, […] spot after cytidine deaminase treatment of F3 dT and […] spot after cytidine deaminase treatment of F3 methyl dC. The u.v. absorption profile of F3 dT derived from deamination of F3 methyl dC is identical to that obtained from authentic F3 dT.
# Solutions a, c, and d, above, were adjusted to the same O. D. and used as substrates for HSV-2 induced pyrimidine deoxyribonucleoside kinase. Results:
# Stock solutions of F3 dT and F3 methyl dC were made up and adjusted to the same concentration as the F3 dT and F3 methyl dC purified chromatographically (solutions a and b, respectively). Usually, F3 methyl dC is phosphorylated 1/6 of the extent that F3 dT is phosphorylated. […] This experiment was performed twice. Results:
# Values for chromatographically purified samples are probably lower due to impurities arising from non-acid washed paper.
# [13] = Incubation with HNO2 (pH 4.5) at room temperature; format: physicochemical
# Experimental: (§1) The results of incubation with HNO2 (pH 4.5) at room temperature were identical to those obtained above.
# [14] = Incubation with acetate buffer (pH 4.5); format: physicochemical; details: 9 hours
# Experimental: as §1
# [15] = test system: cytidine deaminase; assay: Incubation with crude cytidine deaminase extract of HEP-2 cells (deamination); format: in vitro ADME, human; details: crude HEP-2 cytidine deaminase extract; Whatman 3MM chromatography
# [16] = test system: vaccinia; details: Shugar 1974; cited from earlier work
# [17] = test system: vesicular stomatitis; details: Shugar 1974; cited from earlier work
structure (smiles),measurement,setting,value
"Nc1nc(=O)n([C@H]2C[C@H](O)[C@@H](CO)O2)cc1Br [BrdC, 5-bromo-2'-deoxycytidine]",toxicity towards uninfected cells compared with deoxyuridine compounds,[1],substantially less toxic towards uninfected cells
O=C(O)CP(=O)(O)O [Phosphonacetic acid],efficacy in animal systems,[2],effective in animal systems
Nc1ncnc2c1ncn2[C@@H]1O[C@H](COP(=O)(O)O)[C@@H](O)[C@@H]1O [ara-AMP],effect against recurrent genital Herpes,[3],neither effective against recurrent genital Herpes
"O=c1[nH]c(=O)n([C@H]2C[C@H](O)[C@@H](CO)O2)cc1I [IdU, 5-iodo-2'-deoxyuridine]",catabolism in the body,[4],rapid catabolism
same,antiviral activity against HSV infections of the eye,[5],exhibits antiviral activity against HSV infections of the eye
same,effectiveness against Herpes Keratitis compared with F3 dT,[5]; in vivo,less effective than F3 dT
same,effectiveness in human Herpes encephalitis,[6],ineffectiveness
same,toxicity towards uninfected cells,[1],exhibit toxicity towards uninfected cells
Cc1cn([C@H]2C[C@H](O)[C@@H](CO)O2)c(=O)nc1N [5-methyl-2'-deoxycytidine],antiviral activity against HSV infected cells compared with 5-methyl-2'-deoxyuridine,[7]; Lin and Prusoff 1977,less effective
C=CCc1cn([C@H]2C[C@H](O)[C@@H](CO)O2)c(=O)[nH]c1=O [5-allyl-2'-deoxyuridine],antiviral activity against Herpes simplex in cell culture,[7],do exhibit antiviral activity
same,substrate for catabolic enzymes uridine and thymidine phosphorylase,[8],substrates for the catabolic enzymes
same,toxicity in culture,[1],non-toxic in culture
CNc1cn([C@H]2C[C@H](O)[C@@H](CO)O2)c(=O)[nH]c1=O [5-methyl amino-2'-deoxyuridine],substrate for catabolic enzymes uridine and thymidine phosphorylase,[8],substrates for the catabolic enzymes
same,toxicity in culture,[1],non-toxic in culture
"O=C1NC(O)CCN1[C@@H]1O[C@H](CO)[C@@H](O)[C@H]1O (some centres unmarked) [H4 U, tetrahydrouridine, reference compound]",cytotoxic activity of H4 U,[9]; 100 or 500 μg/ml,does not display any cytotoxic activity
same,antiviral activity of H4 U,[10],does not display any antiviral activity
same,toxicity in man,[11],not toxic in man at extremely high concentrations
"O=c1[nH]c(=O)n([C@H]2C[C@H](O)[C@@H](CO)O2)cc1C(F)(F)F [F3 dT, 5-trifluoromethyl-2'-deoxyuridine]",nmoles phosphorylated/4 hrs,"[12]; chromatographically purified, value in parentheses (experiment performed twice)",0.19 nmoles/4 hrs
same,nmoles phosphorylated/4 hrs,"[12]; chromatographically purified, value outside parentheses",0.16 nmoles/4 hrs
same,extent of phosphorylation compared with F3 dT,[12]; product of cytidine deaminase treatment of F3 methyl dC (d),to the same extent as F3 dT
same,nmoles phosphorylated/60min.,[12]; listed as a,0.07 nmoles/60min
same,nmoles phosphorylated/60min.,[12]; listed as c,0.08 nmoles/60min
same,nmoles phosphorylated/60min.,[12]; listed as d,0.05 nmoles/60min
same,nmoles phosphorylated/4 hrs,"[12]; standard solutions, value in parentheses (experiment performed twice)",0.57 nmoles/4 hrs
same,nmoles phosphorylated/4 hrs,"[12]; standard solutions, value outside parentheses",0.48 nmoles/4 hrs
same,catabolism in the body,[4],rapid catabolism
same,change on incubation with HNO2,[13],remained unaltered
same,cytotoxicity at concentrations with antiviral activity,[9]; ±H4 U,extremely cytotoxic
same,modification in acetate buffer,[14],did not lead to modification
same,antiviral activity against HSV infections of the eye,[5],does exhibit antiviral activity against infections of the eye
same,chromatographic change on incubation with cytidine deaminase,[15],remained unchanged chromatographically
same,toxicity towards uninfected cells,[1],exhibit toxicity towards uninfected cells
O=c1[nH]c(=O)n([C@H]2C[C@H](O)[C@@H](CO)O2)cc1-c1ccccc1 [5-phenyl-2'-deoxyuridine],antiviral activity against Herpes simplex in cell culture,[7],do exhibit antiviral activity
same,substrate for catabolic enzymes uridine and thymidine phosphorylase,[8],substrates for the catabolic enzymes
same,toxicity in culture,[1],non-toxic in culture
Nc1ncnc2c1ncn2[C@@H]1O[C@H](CO)[C@@H](O)[C@@H]1O [Adenine arabinoside],effect against recurrent genital Herpes,[3],neither effective against recurrent genital Herpes
same,incidence of death due to human encephalitis,[6],decrease the incidence of death
O=c1[nH]c(=O)n([C@H]2C[C@H](O)[C@@H](CO)O2)cc1F [5-fluorodeoxyuridine],antiviral activity against HSV infections of the eye,[5],very little antiviral activity
CCc1cn([C@H]2C[C@H](O)[C@@H](CO)O2)c(=O)[nH]c1=O [5-ethyl-2'-deoxyuridine],antiviral activity against Herpes simplex in cell culture,[7],do exhibit antiviral activity
same,substrate for catabolic enzymes uridine and thymidine phosphorylase,[8],substrates for the catabolic enzymes
same,toxicity in culture,[1],non-toxic in culture
N#CSc1cn([C@H]2C[C@H](O)[C@@H](CO)O2)c(=O)[nH]c1=O [5-thiocyanato-2'-deoxyuridine],antiviral activity against Herpes simplex in cell culture,[7],do exhibit antiviral activity
same,substrate for catabolic enzymes uridine and thymidine phosphorylase,[8],substrates for the catabolic enzymes
same,toxicity in culture,[1],non-toxic in culture
O=C1NC(O)CCN1[C@H]1C[C@H](O)[C@@H](CO)O1 (some centres unmarked) [2'-deoxytetrahydrouridine],toxicity in man,[11],not toxic in man at extremely high concentrations
CCc1cn([C@H]2C[C@H](O)[C@@H](CO)O2)c(=O)nc1N [5-ethyl-2'-deoxycytidine],activity against vaccinia,[16],no activity
same,activity against vesicular stomatitis,[17],no activity
same,antiviral activity against HSV infected cells,[7]; Shugar 1974,only a low antiviral activity
"Nc1nc(=O)n([C@H]2C[C@H](O)[C@@H](CO)O2)cc1I [IdC, 5-iodo-2'-deoxycytidine]",treatment of Herpes Keratitis in humans compared with IdU,"[5]; humans, Kurimoto et al. 1969",more effective
same,toxicity towards uninfected cells compared with deoxyuridine compounds,[1],substantially less toxic towards uninfected cells
CCCc1cn([C@H]2C[C@H](O)[C@@H](CO)O2)c(=O)[nH]c1=O [5-propyl-2'-deoxyuridine],antiviral activity against Herpes simplex in cell culture,[7],do exhibit antiviral activity
same,substrate for catabolic enzymes uridine and thymidine phosphorylase,[8],substrates for the catabolic enzymes
same,toxicity in culture,[1],non-toxic in culture
